IC50 data for eight compounds are collected here from US8193208B2 (Purdue Pharma L.P., priority 2005, dated 2012).

pIC50: −log10 of the molar value. A value given as a limit tells only on which side of the number the result lay.

Holding throughout (assay type): cell-based
The target in experiment [1] is T1, N-type calcium channel (NTCC) (Homo sapiens, UniProt Q00975). Briefly: FLIPR calcium mobilization assay for N-type calcium channel (differentiated IMR32 cells). Details: differentiated IMR32 cells were treated with 1×; endogenous in cells; host or cells: IMR32 cells (ATCC), differentiated 8 days with dibutyryl cAMP and bromodeoxyuridine. The settings on record: calcium mobilization in vitro assay; N-type calcium channel block. As for the experimental part: Cell maintenance and differentiation. Unless noted otherwise, cell culture reagents were purchased from Mediatech of Herndon, Md. IMR32 cells (American Type Culture Collection, ATCC, Manassas, Va.) were routinely cultured in growth medium consisting of minimum essential medium containing 10% fetal bovine serum (FBS, Hyclone, Logan, Utah), 100 U/mL penicillin, 100 μg/mL streptomycin, 2 mM L-glutamine, 1 mM sodium pyruvate, and 1×MEM non-essential amino acids. 80-90% confluent flasks of cells were differentiated using the following differentiation medium: Growth medium plus 1 mM dibutyryl cyclic AMP (Sigma, St. Louis, Mo.), and 2.5 μM bromodeoxyuridine (Sigma). […]
CellStripper, and seeded on poly-D-lysine-coated 96-well clear-bottom black plates (Becton Dickinson, Franklin Lakes, N.J.) at 200,000 cells/well. […] Plates were then transferred to a Fluorimetric Imaging Plate Reader (FLIPR^96, Molecular Devices, Inc., Sunnyvale, Calif.) for assay. The FLIPR measured basal Fluo-4 fluorescence for 315 seconds (i.e., 5 minutes and 15 seconds), then added 0.1 mL KCl agonist dissolved in IMR32 buffer and measured fluorescence for another 45 seconds. Final test compound concentrations on the cells after FLIPR read ranged from about 846 pM to about 17 μM, final nitrendipine concentration was 5 μM, and final KCl concentration was 90 mM. […]
In general terms: A change in cytosolic calcium serves as a functional read-out for many receptors and channels.

Experiment [2] deals with T2, L-type calcium channel (LTCC) (Rattus norvegicus, UniProt P22002).
T2 construct: The 6.5 kb cDNA encoding the L-type calcium channel α1c subunit was cloned by PCR amplification from rat heart cDNA; expressed in transfected cells; host or cells: HEK293 (ATCC), stably transfected
T2 sequence (P22002 whole entry): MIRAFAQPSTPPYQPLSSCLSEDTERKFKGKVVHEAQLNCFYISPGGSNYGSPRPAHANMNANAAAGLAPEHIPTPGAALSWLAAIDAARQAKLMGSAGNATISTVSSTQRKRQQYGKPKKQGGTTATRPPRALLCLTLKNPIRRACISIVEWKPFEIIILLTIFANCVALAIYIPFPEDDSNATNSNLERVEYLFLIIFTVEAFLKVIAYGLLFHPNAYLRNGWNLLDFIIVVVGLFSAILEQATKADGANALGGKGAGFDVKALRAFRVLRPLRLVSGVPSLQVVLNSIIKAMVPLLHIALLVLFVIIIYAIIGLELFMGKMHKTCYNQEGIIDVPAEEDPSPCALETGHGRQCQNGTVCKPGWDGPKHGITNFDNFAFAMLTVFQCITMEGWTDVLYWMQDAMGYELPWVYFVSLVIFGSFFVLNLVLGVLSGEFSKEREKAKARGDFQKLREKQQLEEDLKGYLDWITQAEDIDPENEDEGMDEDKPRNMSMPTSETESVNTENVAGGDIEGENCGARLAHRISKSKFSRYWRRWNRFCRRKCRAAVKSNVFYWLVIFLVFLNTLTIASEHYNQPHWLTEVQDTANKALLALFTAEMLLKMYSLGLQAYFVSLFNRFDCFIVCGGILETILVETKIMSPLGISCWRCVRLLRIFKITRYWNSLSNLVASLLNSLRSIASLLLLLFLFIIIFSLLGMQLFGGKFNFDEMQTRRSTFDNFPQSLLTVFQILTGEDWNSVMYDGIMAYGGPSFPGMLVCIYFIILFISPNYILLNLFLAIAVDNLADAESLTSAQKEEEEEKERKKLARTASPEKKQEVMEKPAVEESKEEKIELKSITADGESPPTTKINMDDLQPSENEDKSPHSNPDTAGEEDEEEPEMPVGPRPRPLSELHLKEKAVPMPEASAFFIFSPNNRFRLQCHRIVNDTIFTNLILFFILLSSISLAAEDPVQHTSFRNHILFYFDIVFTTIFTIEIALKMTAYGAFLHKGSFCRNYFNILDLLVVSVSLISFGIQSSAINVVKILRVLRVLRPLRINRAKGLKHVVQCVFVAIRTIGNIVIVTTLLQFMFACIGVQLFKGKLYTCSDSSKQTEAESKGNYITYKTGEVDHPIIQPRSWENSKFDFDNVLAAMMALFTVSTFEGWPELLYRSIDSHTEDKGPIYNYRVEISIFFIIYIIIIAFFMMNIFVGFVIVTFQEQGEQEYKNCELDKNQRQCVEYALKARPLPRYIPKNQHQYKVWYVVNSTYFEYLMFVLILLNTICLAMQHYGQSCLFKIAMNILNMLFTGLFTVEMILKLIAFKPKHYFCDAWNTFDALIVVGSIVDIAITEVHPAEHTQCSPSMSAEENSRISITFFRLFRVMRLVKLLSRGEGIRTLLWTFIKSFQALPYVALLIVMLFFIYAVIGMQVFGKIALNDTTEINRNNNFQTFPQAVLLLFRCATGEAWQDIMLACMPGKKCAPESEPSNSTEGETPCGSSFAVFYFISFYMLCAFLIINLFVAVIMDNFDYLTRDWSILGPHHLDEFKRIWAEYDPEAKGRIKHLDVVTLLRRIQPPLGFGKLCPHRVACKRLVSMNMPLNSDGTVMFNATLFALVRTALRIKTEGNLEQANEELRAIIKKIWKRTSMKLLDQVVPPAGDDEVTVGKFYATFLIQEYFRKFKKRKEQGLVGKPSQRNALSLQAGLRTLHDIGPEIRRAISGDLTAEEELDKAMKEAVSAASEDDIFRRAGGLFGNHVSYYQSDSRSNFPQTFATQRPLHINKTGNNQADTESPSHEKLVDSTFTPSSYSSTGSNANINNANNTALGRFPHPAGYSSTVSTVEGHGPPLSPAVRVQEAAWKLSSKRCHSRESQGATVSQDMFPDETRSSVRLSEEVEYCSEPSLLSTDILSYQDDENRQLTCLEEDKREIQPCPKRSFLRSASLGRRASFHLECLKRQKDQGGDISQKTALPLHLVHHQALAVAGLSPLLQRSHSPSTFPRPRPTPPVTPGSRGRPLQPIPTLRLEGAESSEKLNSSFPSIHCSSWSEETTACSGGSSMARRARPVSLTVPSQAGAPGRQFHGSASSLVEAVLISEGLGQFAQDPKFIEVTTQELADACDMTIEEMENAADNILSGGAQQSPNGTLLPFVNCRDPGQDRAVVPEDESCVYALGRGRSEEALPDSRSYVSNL
T2 sequence (P54290 25-944 partner limits assumed): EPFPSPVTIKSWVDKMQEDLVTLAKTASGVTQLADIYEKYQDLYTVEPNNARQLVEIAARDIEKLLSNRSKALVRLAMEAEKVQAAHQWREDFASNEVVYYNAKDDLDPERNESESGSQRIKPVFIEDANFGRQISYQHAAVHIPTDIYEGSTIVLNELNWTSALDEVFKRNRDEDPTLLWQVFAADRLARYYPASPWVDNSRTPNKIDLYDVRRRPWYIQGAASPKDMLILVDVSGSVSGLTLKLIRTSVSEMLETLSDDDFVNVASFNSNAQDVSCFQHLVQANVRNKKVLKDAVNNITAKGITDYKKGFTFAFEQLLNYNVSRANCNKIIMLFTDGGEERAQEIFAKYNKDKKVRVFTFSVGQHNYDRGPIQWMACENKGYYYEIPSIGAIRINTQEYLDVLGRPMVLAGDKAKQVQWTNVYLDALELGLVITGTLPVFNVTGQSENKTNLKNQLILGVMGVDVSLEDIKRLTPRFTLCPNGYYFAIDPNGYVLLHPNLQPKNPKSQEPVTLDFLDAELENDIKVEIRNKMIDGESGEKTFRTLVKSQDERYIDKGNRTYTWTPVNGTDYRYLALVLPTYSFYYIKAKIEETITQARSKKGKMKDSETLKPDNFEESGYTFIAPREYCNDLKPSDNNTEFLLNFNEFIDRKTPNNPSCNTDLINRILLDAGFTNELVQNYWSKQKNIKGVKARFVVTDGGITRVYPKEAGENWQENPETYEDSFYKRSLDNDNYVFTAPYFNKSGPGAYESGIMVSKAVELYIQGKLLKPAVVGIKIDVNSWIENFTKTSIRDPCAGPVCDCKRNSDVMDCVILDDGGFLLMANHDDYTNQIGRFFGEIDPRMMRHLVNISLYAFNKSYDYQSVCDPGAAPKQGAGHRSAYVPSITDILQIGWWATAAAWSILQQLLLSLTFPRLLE
T2 sequence (P54290 945-1091 partner limits assumed): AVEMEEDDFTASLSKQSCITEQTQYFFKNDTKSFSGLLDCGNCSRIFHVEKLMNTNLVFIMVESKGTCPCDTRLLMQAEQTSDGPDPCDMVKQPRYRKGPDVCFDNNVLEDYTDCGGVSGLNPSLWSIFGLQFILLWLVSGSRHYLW
T2 sequence (P54283 whole entry partner): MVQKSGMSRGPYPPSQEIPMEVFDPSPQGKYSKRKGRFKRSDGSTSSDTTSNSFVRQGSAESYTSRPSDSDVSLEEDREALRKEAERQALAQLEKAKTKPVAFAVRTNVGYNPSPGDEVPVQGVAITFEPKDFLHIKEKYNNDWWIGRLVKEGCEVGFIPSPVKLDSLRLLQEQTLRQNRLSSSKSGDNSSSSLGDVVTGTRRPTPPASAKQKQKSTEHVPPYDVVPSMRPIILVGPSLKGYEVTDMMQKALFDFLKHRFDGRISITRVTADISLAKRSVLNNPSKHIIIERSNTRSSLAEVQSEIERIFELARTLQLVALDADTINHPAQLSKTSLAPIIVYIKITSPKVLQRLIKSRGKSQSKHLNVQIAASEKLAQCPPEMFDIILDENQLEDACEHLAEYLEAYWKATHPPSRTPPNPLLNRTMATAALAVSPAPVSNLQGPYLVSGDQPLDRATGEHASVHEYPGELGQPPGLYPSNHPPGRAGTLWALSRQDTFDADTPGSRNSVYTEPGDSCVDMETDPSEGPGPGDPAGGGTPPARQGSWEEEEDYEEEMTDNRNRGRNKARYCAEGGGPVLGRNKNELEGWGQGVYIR
Put plainly: FLIPR calcium mobilization assay for L-type calcium channel (HEK293 cells expressing recombinant rat LTCC subunits, or alternatively differentiated A7r5 cells). The note with it: calcium mobilization in vitro assay; L-type calcium channel block. The protocol:
A7r5 (ATCC) cells were maintained and routinely cultured in A7r5 growth medium consisting of Dulbecco's Modified Eagles Medium containing 10% FBS, 100 U/mL penicillin, 100 μg/mL streptomycin, 4 mM L-glutamine, and 0.15% sodium bicarbonate. 80-90% confluent flasks of cells were differentiated using the following differentiation medium: A7r5 Growth Medium plus 1 mM dibutyryl cyclic AMP (Sigma). Cells were differentiated for 8 days by replacing differentiation medium every 2-3 days.
FLIPR Calcium Mobilization Assay for L-type Calcium Channel. One day prior to performing this assay, HEK293 cells stably expressing recombinant rat L-type calcium channel (LTCC) subunits (α1c, α2δ, and β1) are trypsinized, then seeded on poly-D-lysine-coated 96-well clear-bottom black plates (Becton Dickinson, Franklin Lakes, N.J.) at 75,000 cells/well. On the day of the assay, the plates are washed with LTCC wash buffer (127 mM NaCl, 2 mM MgCl2, 700 μM NaH2PO4, 5 mM CaCl2, 5 mM NaHCO3, 8 mM HEPES, 10 mM glucose, pH 7.4), then loaded with 0.1 mL of LTCC wash buffer containing Fluo-4 (3 μM final concentration, Molecular Probes, Eugene, Oreg.). After 1 hour, the cells are washed with 0.1 mL LTCC wash buffer and resuspended in 0.05 mL LTCC assay buffer (same composition as LTCC wash buffer). Plates are then transferred to a FLIPR^96 for assay. The FLIPR measures basal Fluo-4 fluorescence for 15 seconds, then adds 0.05 mL of each compound tested diluted in LTCC assay buffer at final concentrations ranging from about 846 pM to about 17 μM. Fluo-4 fluorescence is then measured for 5 minutes. 0.1 mL KCl agonist dissolved in LTCC assay buffer is then added to the cells to produce a final concentration of 90 mM KCl, and fluorescence is measured for another 45 seconds. Data are collected over the entire time course and analyzed using Excel, Graph Pad Prism, or an in-house regression analysis software.
Alternative FLIPR Calcium Mobilization Assay for L-type Calcium Channel. Alternatively, the following cell line and procedure was used for the FLIPR calcium mobilization assay for L-type calcium channel. One day prior to performing this assay, differentiated A7r5 cells were trypsinized, then seeded on tissue culture treated 96-well clear-bottom black plates (Becton Dickinson, Franklin Lakes, N.J.) at a dilution of 1:1 from a confluent T150 cm^2 flask. On the day of the assay, the plates were washed with A7r5 wash buffer (127 mM NaCl, 2 mM MgCl2, 700 μM NaH2PO4, 5 mM CaCl2, 5 mM NaHCO3, 8 mM HEPES, 10 mM glucose, pH 7.4), then loaded with 0.1 mL of A7r5 wash buffer containing Fluo-4 (3 μM final concentration, Molecular Probes, Eugene, Oreg.). After 1 hour, the cells were washed with 0.1 mL A7r5 wash buffer and resuspended in 0.05 mL A7r5 assay buffer that was composed of A7r5 wash buffer plus 50 μM valinomycin (Sigma). Plates were then transferred to a FLIPR^96 for assay. The FLIPR measured basal Fluo-4 fluorescence for 15 seconds, then added 0.05 mL of each compound tested diluted in A7r5 assay buffer at final concentrations ranging from about 846 pM to about 17 μM. Fluo-4 fluorescence was then measured for 5 minutes. 0.1 mL KCl agonist dissolved in A7r5 assay buffer is then added to the cells to produce a final concentration of 90 mM KCl, and fluorescence was measured for another 45 seconds. Data were collected over the entire time course and analyzed using Excel, Graph Pad Prism, or an in-house regression analysis software.

Experiment [3] addresses T1, N-type calcium channel (NTCC). Briefly: FLIPR calcium mobilization assay for N-type calcium channel (differentiated IMR32 cells). The settings on record: calcium mobilization in vitro assay; N-type calcium channel block. Also on record: endogenous in cells; host or cells: IMR32 cells (ATCC), differentiated 8 days with dibutyryl cAMP and bromodeoxyuridine. The protocol: Cell maintenance and differentiation. Unless noted otherwise, cell culture reagents were purchased from Mediatech of Herndon, Md. IMR32 cells (American Type Culture Collection, ATCC, Manassas, Va.) were routinely cultured in growth medium consisting of minimum essential medium containing 10% fetal bovine serum (FBS, Hyclone, Logan, Utah), 100 U/mL penicillin, 100 μg/mL streptomycin, 2 mM L-glutamine, 1 mM sodium pyruvate, and 1×MEM non-essential amino acids. 80-90% confluent flasks of cells were differentiated using the following differentiation medium: Growth medium plus 1 mM dibutyryl cyclic AMP (Sigma, St. Louis, Mo.), and 2.5 μM bromodeoxyuridine (Sigma). Cells were differentiated for 8 days by replacing differentiation medium every 2-3 days.
FLIPR Calcium Mobilization Assay for N-type Calcium Channel. One day prior to performing this assay, differentiated IMR32 cells were treated with 1×
CellStripper, and seeded on poly-D-lysine-coated 96-well clear-bottom black plates (Becton Dickinson, Franklin Lakes, N.J.) at 200,000 cells/well. On the day of the assay, the cell plates were washed with IMR32 buffer (127 mM NaCl, 1 mM KCl, 2 mM MgCl2, 700 μM NaH2PO4, 5 mM CaCl2, 5 mM NaHCO3, 8 mM HEPES, 10 mM glucose, pH 7.4), then pre-stimulated with KCl and loaded as follows: 0.05 mL of IMR32 buffer, 0.05 mL of each compound tested diluted in IMR32 buffer containing 20 μM nitrendipine (Sigma), and 0.1 mL KCl dissolved in IMR32 buffer, plus Fluo-4 were added (3 μM final concentration, Molecular Probes, Eugene, Oreg.). Final test compound concentrations ranged from about 846 pM to about 17 μM, final nitrendipine concentration was 5 μM, and final KCl concentration was 90 mM. After 1 hour, the cells were washed twice with 0.05 mL of each compound tested in nitrendipine-containing IMR32 buffer (no KCl or Fluo-4), and then replaced with 0.1 mL of each compound tested in nitrendipine-containing IMR32 buffer. Plates were then transferred to a Fluorimetric Imaging Plate Reader (FLIPR^96, Molecular Devices, Inc., Sunnyvale, Calif.) for assay. The FLIPR measured basal Fluo-4 fluorescence for 315 seconds (i.e., 5 minutes and 15 seconds), then added 0.1 mL KCl agonist dissolved in IMR32 buffer and measured fluorescence for another 45 seconds. Final test compound concentrations on the cells after FLIPR read ranged from about 846 pM to about 17 μM, final nitrendipine concentration was 5 μM, and final KCl concentration was 90 mM. Data were collected over the entire time course and analyzed using Excel, Graph Pad Prism (version 3.02, Graph Pad, San Diego, Calif.), or an in-house non-linear regression analysis software.

Take `CC(C)c1ccc(CN2CCC3(C=Cc4cccnc43)CC2)cc1`: in experiment [1], the pIC50 (usually −log10 of the IC50, conventionally taken in molar units) was 4.70 to 5.00. `O=C1OC2(CCN(C(=O)CCC(c3ccc(F)cc3)c3ccc(F)cc3)CC2)c2ccccc21` [Compound 14, 1,3-Dihydro-1′-[4,4-bis(4-fluorophenyl)butanoyl]-spiro[isobenzofuran-1,4′-piperidine]-3-one]: the pIC50 was 6.51 in experiment [2] and 6.16 in experiment [3]. Take `O=C(CCC(c1ccc(F)cc1)c1ccc(F)cc1)N1CCC2(CCc3ccccc32)CC1` [Compound 35, 1-[4,4-bis(4-fluorophenyl)butanoyl]-spiro[piperidine-4,1′-indane]]: the pIC50 is less than 4.70 in experiment [2] and 5.31 in experiment [3].

Consider `COc1ccc(CN2CCC3(C=Cc4ccccc43)CC2)cc1` [Compound 37, 1-(4-methoxybenzyl)-spiro[piperidine-4,1′-indene]], for which the pIC50 in experiment [2] was 5.26; in experiment [3], 6.09. For `Fc1ccc(C(CCCN2CCC3(CC2)OCc2ccccc23)c2ccc(F)cc2)cc1` [Compound 42, 1,3-Dihydro-1′-[4,4-bis(4-fluorophenyl)butyl]-spiro[isobenzofuran-1,4′-piperidine]], in that order: 5.59 and 5.92. For `O=C1c2ccccc2C2(CCN(CCCC(c3ccc(F)cc3)c3ccc(F)cc3)CC2)N1Cc1ccccc1` [Compound 51, 2-Benzyl-2,3-dihydro-1′-[4,4-bis(4-fluorophenyl)butyl]-spiro[isoindole-1,4′-piperidine]-3-one], in that order: 5.19 and 6.26. Turning to `O=C1Nc2ccccc2C12CCN(CCCC(c1ccc(F)cc1)c1ccc(F)cc1)CC2` [Compound 60, 2,3-Dihydro-1′-[4,4-bis(4-fluorophenyl)butyl]-spiro[indole-3,4′-piperidine]-2-one], the negative logarithm of the IC50 (pIC50) in experiment [2] was 5.42; in experiment [3], 5.98. As for `O=C1OC2(CCN(CCCN(c3ccc(F)cc3)c3ccc(F)cc3)CC2)c2ccccc21` [Compound 68, 1,3-Dihydro-1′-{3-[N,N-bis(4-fluorophenyl)amino]propyl}-spiro[isobenzofuran-1,4′-piperidine]-3-one], the pIC50 in experiment [2] is less than 4.70; in experiment [3], 6.64.
